Experimental data reported in patent US20080293916A1, “Hla-Binding Peptide, and Dna Fragment and Recombinant Vector Coding for Said Hla-Binding Peptide” (NEC CORPORATION, priority 2004, published 2008).
Ends that are not written are not given here.

B1: HLA-A24-binding peptide of SEQ ID NO 1 (WT1 peptide, SEQ NAME 356) (peptide)
peptide: DFKDCERRF
notes: Synthesised by the Fmoc solid-phase method, purity 95% or higher

Molecular target: HLA-A2 molecule, product of the HLA-A*0201 gene (Homo sapiens, UniProt P04439, D140Y/D185E/D98H/E176V/E277Q/G131W/G231S/I119V/I121R/I166T/I218V/L300P/L318F/N151K/N90K/P208A/P217A/Q86G/Q94H/R138H/R169H/T345S)
Assay: Experiment of binding peptide to HLA-A2 molecule (JY cells, flow cytometer)
Details: not given
Experimental: (§1) <Experiment of Binding Peptide to HLA-A2 Molecule>
(§2) JY cells were first exposed to acidic conditions at a pH of 3.8 for 30 seconds, thus dissociating and removing a light chain β2m and an endogenous peptide, which were noncovalently associated with the HLA-A*0201 molecule. After neutralization, a reassociation experiment was carried out.
(§3) The above-mentioned JY cells and the purified β2m were added to stepped dilutions of peptide for which the binding ability would be measured, and incubation was carried out on ice for 4 hours. HLA-A*0201 molecules that had reassociated up to this point were stained using the associating type specific fluorescently-labeled monoclonal antibody BB7.2.
(§4) Subsequently, the amount of fluorescence per cell was measured using a flow cytometer and a dissociation constant Kd value in molar concentration was calculated by a published method (Udaka et al., Immunogenetics, 51, 816-828, 2000).

Point of comparison: NLYQMTSQL [compound 44], Kd 1.49 µM. Against it:
- ALLLRTPYS [compound 38] — 3.1-fold higher, 4.69 µM
- ALLPAVPSL [compound 33] — 100-fold lower, 0.0143 µM
- GVFRGIQDV [compound 51] — within 1.5-fold, 1.41 µM
- ILCGAQYRI [compound 40] — 5-fold higher, 7.51 µM
- NLGATLKGV [compound 31] — 5.5-fold higher, 8.17 µM
- NMTKLQLAL [compound 49] — 2.5-fold higher, 3.71 µM
- QQYSVPPPV [compound 39] — 2.2-fold higher, 3.24 µM

Same assay, conditions: −log Kd value (Kd in molar concentration); HLA-A2, JY cells, on ice 4 hours; read-out: BINDING EXPERIMENT DATA (converted)

In the case of VAAGSSSSV [compound 43], the Kd is reported as 9.95 µM.

Molecular target: T1, HLA-A24 molecule (product of the HLA-A*2402 gene) on C1R-A24 cells (human)
T1 construct: MHC class I molecule on cells; Emptied by acid treatment (pH 3.3, 30 s), then reassociated with added purified beta2m and the test peptide; also called HLA-A*2402 molecule; human HLA-A24 molecule
Assay: reassociation on acid-stripped C1R-A24 cells with added beta2m, mAb 17A12 staining, flow cytometry
Details: not given

Point of comparison: ALLPAVPSL [HLA-A24-binding peptide of SEQ ID NO 2 (WT1 peptide, SEQ NAME 10)], “-log Kd” value 9.16 -log Kd (Kd in molar concentration). Against it:
- ILCGAQYRI (also called ILOGAQYRI) [HLA-A24-binding peptide of SEQ ID NO 14 (WT1 peptide, SEQ NAME 280)] — lower, 5.9 -log Kd (Kd in molar concentration)
- YRIHTHGVF [HLA-A24-binding peptide of SEQ ID NO 3 (WT1 peptide, SEQ NAME 286)] — lower, 4.39 -log Kd (Kd in molar concentration)
- NMTKLQLAL (also called NMTKLQLAL) [HLA-A24-binding peptide of SEQ ID NO 10 (WT1 peptide, SEQ NAME 441)] — lower, 6.38 -log Kd (Kd in molar concentration)
- PPPPPPHSF [HLA-A24-binding peptide of SEQ ID NO 4 (WT1 peptide, SEQ NAME 63)] — lower, 4.4 -log Kd (Kd in molar concentration)
- B1 — lower, 4.4 -log Kd (Kd in molar concentration)
- PPPPPHSFI [HLA-A24-binding peptide of SEQ ID NO 7 (WT1 peptide, SEQ NAME 64)] — lower, 4.4 -log Kd (Kd in molar concentration)
- NLYQMTSQL [HLA-A24-binding peptide of SEQ ID NO 29 (WT1 peptide, SEQ NAME 225)] — lower, 4.38 -log Kd (Kd in molar concentration)
- SFIKQEPSW [HLA-A24-binding peptide of SEQ ID NO 6 (WT1 peptide, SEQ NAME 70)] — lower, 8.16 -log Kd (Kd in molar concentration)
- DVRDLNALL [HLA-A24-binding peptide of SEQ ID NO 5 (WT1 peptide, SEQ NAME 4)] — lower, 4.45 -log Kd (Kd in molar concentration)
- QYRIHTHGV [HLA-A24-binding peptide of SEQ ID NO 30 (WT1 peptide, SEQ NAME 285)] — lower, 5.62 -log Kd (Kd in molar concentration)

Molecular target: T2, HLA-A2 molecule (product of the HLA-A*0201 gene) on JY cells (human)
T2 construct: MHC class I molecule on cells; Emptied by acid treatment (pH 3.8, 30 s), then reassociated with added purified beta2m and the test peptide; also called HLA-A*0201 molecule; human HLA-A2 molecule
Assay: reassociation on acid-stripped JY cells with added beta2m, mAb BB7.2 staining, flow cytometry
Details: not given

Point of comparison: ALLLRTPYS [HLA-A2-binding peptide of SEQ ID NO 38 (WT1 peptide, SEQ NAME 214)], “-log Kd” value 5.33 -log Kd (Kd in molar concentration). Against it:
- ILCGAQYRI (also called ILOGAQYRI) [HLA-A2-binding peptide of SEQ ID NO 40 (WT1 peptide, SEQ NAME 280)] — lower, 5.12 -log Kd (Kd in molar concentration)
- GVFRGIQDV [HLA-A2-binding peptide of SEQ ID NO 51 (WT1 peptide, SEQ NAME 292)] — higher, 5.85 -log Kd (Kd in molar concentration)
- NLGATLKGV [HLA-A2-binding peptide of SEQ ID NO 31 (WT1 peptide, SEQ NAME 242)] — lower, 5.09 -log Kd (Kd in molar concentration)
- ALLPAVPSL [HLA-A2-binding peptide of SEQ ID NO 33 (WT1 peptide, SEQ NAME 10)] — higher, 7.84 -log Kd (Kd in molar concentration)
- VAAGSSSSV [HLA-A2-binding peptide of SEQ ID NO 43 (WT1 peptide, SEQ NAME 250)] — lower, 5 -log Kd (Kd in molar concentration)
- NLYQMTSQL [HLA-A2-binding peptide of SEQ ID NO 44 (WT1 peptide, SEQ NAME 225)] — higher, 5.83 -log Kd (Kd in molar concentration)
- QQYSVPPPV [HLA-A2-binding peptide of SEQ ID NO 39 (WT1 peptide, SEQ NAME 191)] — higher, 5.49 -log Kd (Kd in molar concentration)
- NMTKLQLAL (also called NMTKLQLAL) [HLA-A2-binding peptide of SEQ ID NO 49 (WT1 peptide, SEQ NAME 441)] — higher, 5.43 -log Kd (Kd in molar concentration)

Test system: human HLA-A type molecule
Assay: Binding experiment, result stated in words for HLA-A type molecule
Details: not given
Experimental: <Experiment of Binding Peptide to HLA-A24 Molecule>
The ability of a peptide to bind to an HLA-A24 molecule, which is a product of the HLA-A*2402 gene, was measured using C1R-A24 cells expressing the HLA-A24 molecule (cells prepared by Professor Masafumi Takiguchi, Kumamoto University being supplied with permission by Assistant Professor Masaki Yasukawa, Ehime University).
C1R-A24 cells were first exposed to acidic conditions at a pH of 3.3 for 30 seconds, thus dissociating and removing a light chain β2m, which is associated with HLA class I molecules in common, and an endogenous peptide originally bound to the HLA-A*2402 molecule. After neutralization, purified β2m was added to C1R-A24 cells, the obtained product was added to serial dilutions of a peptide, and incubated on ice for 4 hours. Staining was carried out using fluorescently labeled monoclonal antibody 17A12, which recognizes association (MHC-pep) of the three members, that is, HLA-A*2402 molecule, the peptide, and β2m, which had reassociated during the incubation.
Subsequently, the MHC-pep count per C1R-A24 cell (proportional to the strength of fluorescence of the above-mentioned fluorescent antibody) was quantitatively measured using an FACScan fluorescence-activated cell sorter (Becton Dickinson Biosciences). A binding dissociation constant Kd value between the HLA-A24 molecule and the peptide was calculated from the average strength of fluorescence per cell by a published method (Udaka et al., Immunogenetics, 51, 816-828, 2000).
as §1, §2, §3, §4

With ALLPAVPSL [compound 2] the “binding to a human HLA-A type molecule (in words)” value (shortened to “binding”) was “experimentally confirmed to bind”.
For DFKDCERRF [compound 1], the “binding” value was “experimentally confirmed to bind”.
With DVRDLNALL [compound 5] the “binding” value was “experimentally confirmed to bind”.
ILCGAQYRI [compound 14] was tested, and the “binding” value was “experimentally confirmed to bind”.
In the case of NLYQMTSQL [compound 29], the “binding” value is reported as “experimentally confirmed to bind”.
For NMTKLQLAL [compound 10], the “binding” value was “experimentally confirmed to bind”.
PPPPPHSFI [compound 7] was tested, and the “binding” value was “experimentally confirmed to bind”.
With PPPPPPHSF [compound 4] the “binding” value was “experimentally confirmed to bind”.
QYRIHTHGV [compound 30] was tested, and the “binding” value was “experimentally confirmed to bind”.
For SFIKQEPSW [compound 6], the “binding” value was “experimentally confirmed to bind”.
In the case of YRIHTHGVF [compound 3], the “binding” value is reported as “experimentally confirmed to bind”.
